The test system of data set [1] is human skin. As to the kind of experiment: Transepidermal water loss (TEWL) of human skin in vitro, reversibility. As to conditions: for TEWL 1 h after the sample had been removed / TEWL 4 h after the sample had been removed / TEWL 8 h after the sample had been removed / TEWL 12 h after the sample had been removed / TEWL 24 h after the sample had been removed: 24-h application of 1% enhancer (1% Azone, 5% SDS) in 60% PG; for TEWL 1 h after the sample had been removed / TEWL 4 h after the sample had been removed / TEWL 8 h after the sample had been removed / TEWL 12 h after the sample had been removed / TEWL 24 h after the sample had been removed / TEWL before sample application (baseline): mean ± SEM; for TEWL values after 24-h treatment (range over the three enhancers): 1% in 60% PG, baseline around 27 g/m^2/h; for time after enhancer removal for TEWL to decline to values similar to baseline: after 24-h application of 1% enhancer in 60% PG. An excerpt: (§1) We further investigated the direct effects of the selected enhancers on the skin barrier assessed by TEWL and the electrical impedance of human skin in vitro. TEWL is a method commonly used in dermatology[38] to study, for example, the irritant potential of chemicals, skin barrier recovery, or effect of topical formulations, and permeation enhancers[17],[21],[41]–[44]. Electrical impedance measures the opposition of the skin to alternating electrical current and is inversely proportional to the flux of ions. Thus, increased TEWL or decreased impedance indicates a barrier impairment[45],[46]. Electrical impedance or conductance measurements have been used to screen new enhancers or assess the irritation potential of compounds[13],[15],[17],[21],[32],[44],[47]–[50]. Both TEWL and impedance can distinguish between reversible and irreversible effects of enhancers on skin permeability[17],[21],[40],[44],[51].
(§2) Human skin was mounted in Franz diffusion cells in the same way as for the permeation studies. After 1-h equilibration, basal TEWL and impedance values were recorded. Then, 1% enhancer in 60% PG, 60% PG as a negative control, 1% Azone in 60% PG, or 5% SDS in 60% PG as positive (irreversible) controls was applied on the skin (100 µl/cm^2) for 24 h. The residual sample was washed with PBS and gently blotted dry. At 1, 4, 8, 12, and 24 h after sample removal, TEWL, and impedance values were recorded. TEWL was measured using AquaFlux AF 200 (Biox Systems Ltd, London, UK), employing the condenser-chamber measurement method at 26 ± 1.0 °C and 43 ± 3% relative air humidity. Electrical impedance was measured by LCR meter 4080 (Conrad electronic, Hirschau, Germany, measuring range 20 Ω–10 MΩ, error at kΩ values < 0.5%) operated in parallel mode with an alternating frequency of 120 Hz, which was also used in our previous work[21],[44].
(§3) Samples were removed from the skin after 24 h, and TEWL and impedance values were recorded in predetermined time intervals (1, 4, 8, 12, and 24 h after sample removal). Data are presented as the means ± SEM; n ≥ 3. * statistically significant difference compared to the baseline value before the sample application at p < 0.05. ^+ statistically significant compared to the value 1 h after the sample removal at p < 0.05.^ ≠ statistically significant compared to the control (60% PG without enhancer) at the same time point, at p < 0.05.

Data set [2] concerns HaCaT spontaneously immortalized human keratinocytes. As to the kind of experiment: MTT cell viability assay, HaCaT. The data set is classed as cell-based. Particulars: 48-h incubation, mean ± SEM, read-out: IC50, HaCaT cells, MTT assay. The text has this: Next, the in vitro toxicities of the most promising enhancers Pro3 and Pro4, along with the parent Pro2, on spontaneously immortalized human keratinocytes (HaCaT) and Swiss albino mouse embryonic fibroblasts (3T3) were studied (Fig. 3). […] The cellular toxicities were further probed using the 3-(4,5-dimethylthiazol-2-yl)-2,5-diphenyltetrazolium bromide (MTT) uptake assay, based on the transformation of yellow MTT into purple formazan by mitochondrial reductases of living cells. The MTT assay also yielded toxicity values in tens of µM with trends to higher toxicity with a longer acyl chain length (thus also higher lipophilicity) of enhancers (Fig. 3).
Cell viability was determined via 3-(4,5-dimethylthiazol-2-yl)-2,5-diphenyltetrazolium bromide (MTT) and neutral red (NR) uptake assays after 48-h incubation with the enhancers (see Supplementary data for details).
Both cell lines were cultivated in Dulbecco’s modified Eagle’s medium (DMEM, Lonza, Basel, Switzerland) supplemented with 10% heat-inactivated fetal bovine serum (Merck, Darmstadt, Germany), 10 mM HEPES buffer (Merck, Darmstadt, Germany), and 1% penicillin/streptomycin solution (Lonza, Basel, Switzerland) in 75-cm^2 tissue culture flasks (TPP, Trasadingen, Switzerland) at 37°C in a humidified atmosphere of 5% CO2. Subconfluent cells were sub-cultured every 3-4 days.
For toxicity studies, the stock-solutions of studied compounds were prepared in dimethyl sulfoxide (DMSO). […]
After 48-h incubation with the studied enhancer, cell viability was determined via 3-(4,5-dimethylthiazol-2-yl)-2,5-diphenyltetrazolium bromide (MTT) uptake assay based on the transformation of yellow MTT into purple formazan by mitochondrial reductase activity of living cells. […] Afterward, the cell viability was assessed by optical density measurement using a Tecan Infinite 200 M plate reader (Tecan, Grödig, Austria) at λ = 570 nm.
The viability of each experimental group was expressed as the percentage of the untreated controls incubated under the same conditions (100%).
A general note: Tetrazolium assays rely on reduction of a dye to a coloured formazan, in cell work by metabolically active cells.

Data set [3] has as its system human skin. In words: Electrical impedance of human skin in vitro, reversibility. Particulars: for impedance 1 h after the sample had been removed / impedance 4 h after the sample had been removed / impedance 8 h after the sample had been removed / impedance 12 h after the sample had been removed / impedance 24 h after the sample had been removed: 24-h application of 1% enhancer (1% Azone, 5% SDS) in 60% PG; for impedance 1 h after the sample had been removed / impedance 4 h after the sample had been removed / impedance 8 h after the sample had been removed / impedance 12 h after the sample had been removed / impedance 24 h after the sample had been removed / impedance before sample application (baseline): mean ± SEM; for fold decrease of skin impedance compared to baseline (range over enhancers and control): 24 h treatment, baseline 25–29 kΩ × cm^2; for recovery of skin impedance after sample removal: after 24-h application, followed 24 h after removal.
Text: as §1, §2, §3

Data set [4] is described as follows: Skin viability after topical enhancer application (TTC reduction test). Particulars: human, freshly excised full thickness human skin, 1% in 60% PG for 24 or 48 h, decrease not significant, read-out: viability of treated skin relative to untreated skin. The method, then:
Freshly excised full thickness human skin was incubated in Dulbecco’s modified Eagle’s medium (DMEM, Lonza, Verviers, Belgium) supplemented with 10% heat-inactivated fetal bovine serum (Merck, Darmstadt, Germany), and 1% penicillin/streptomycin + 1% amphotericin B solution (Lonza, Verviers, Belgium) at 37 °C in a humidified atmosphere of 5% CO2. Skin fragments were treated with 1% enhancer in 60% PG, 20 µl/cm^2, 60% PG alone or left untreated for 24 or 48 h. Then the skin was washed rinsed with distilled water and gently blotted dry. Skin viability was evaluated using the 2,3,5-triphenyltetrazolium chloride (TTC) reduction test[57]. Punch biopsies of 5 mm diameter were incubated in 1 ml of 1.5% TTC and 3% sodium succinate in phosphate buffered saline at pH 7.4 at 37 °C under nitrogen in the dark. After 1 h, the skin samples were dried and the dark red formazan derivative produced by the mitochondrial enzymes was extracted with 1 ml of 2-methoxyethanol for 12 h. Absorbance was measured at 490 nm using Tecan Infinite 200 M plate reader (Tecan, Grödig, Austria) and corrected using skin samples devitalized by boiling as a negative control. The viability of skin exposed to the different preparations was expressed as a percentage of untreated control skin.

Marks after values point to notes of the source that are not given here.

Take `CCCCCCCCCCCCOC(=O)C1CCCN1C(C)=O` (centres unmarked) [Pro2, N-acetyl proline dodecyl ester]: in the data set on human skin [1], the “TEWL 1 h after the sample had been removed” value (from here on “TEWL 1 h”) is on record as 65.4 ± 1.5*^≠ g/m^2/h, the “TEWL 4 h after the sample had been removed” value (“TEWL 4 h” for short) is reported as 56.0 ± 1.3*^≠ g/m^2/h, the “TEWL 8 h after the sample had been removed” value (“TEWL 8 h” for short) was 45.9 ± 1.5*^≠+ g/m^2/h and the “TEWL 12 h after the sample had been removed” value (“TEWL 12 h” for short) is listed as 42.5 ± 2.5*^≠+ g/m^2/h. Further, in the data set with human skin [1], the “TEWL 24 h after the sample had been removed” value (from here on “TEWL 24 h”) is recorded as 41.8 ± 1.0*^≠+ g/m^2/h, the “TEWL values after 24-h treatment (range over the three enhancers)” value was 50–65 g/m^2/h and the “TEWL before sample application (baseline)” value was 25.0 ± 3.0 g/m^2/h. Moreover, in the data set with human skin [1] (after 24-h application, followed 24 h after removal), the “reversibility of TEWL increase” value is reported as “only partly reversible within 24 h”. For the same compound, the IC50 (usually the midpoint of a concentration-inhibition curve) in data set [2] was found to be 53.2 ± 3.19 µM. Besides, in the data set on human skin [3], the “impedance 1 h after the sample had been removed” value (from here on “impedance 1 h”) is given as 2.8 ± 0.1* kΩ×cm^2, the “impedance 4 h after the sample had been removed” value (from here on “impedance 4 h”) was 6.0 ± 1.1*^≠ kΩ×cm^2, the “impedance 8 h after the sample had been removed” value (from here on “impedance 8 h”) is 8.1 ± 1.7*^≠ kΩ×cm^2 and the “impedance 12 h after the sample had been removed” value (from here on “impedance 12 h”) is 8.6 ± 2.0*^≠ kΩ×cm^2. Also, in the data set on human skin [3], the “impedance 24 h after the sample had been removed” value (shortened to “impedance 24 h”) was 9.4 ± 2.6*^≠+ kΩ×cm^2; the “fold decrease of skin impedance compared to baseline (range over enhancers and control)” value (“fold decrease of skin impedance” below) is reported as 5–21 times; the “recovery of skin impedance after sample removal” value (shortened to “recovery of skin impedance”) is listed as “recovered incompletely”; the “impedance before sample application (baseline)” value worked out at 25.2 ± 2.1 kΩ×cm^2.

Turning to `CCCCCCCCCCCCOC(=O)C1CCCN1C(=O)CC` (centres unmarked) [Pro3], in data set [4], the viability (usually the share of living cells, or the viability signal relative to a control) at 1 % was at least 92%. Further, in the data set with human skin [1], the “TEWL 1 h” value is given as 59.4 ± 5.6*^≠ g/m^2/h, the “TEWL 4 h” value was 47.1 ± 1.7*^≠+ g/m^2/h, the “TEWL 8 h” value is listed as 36.5 ± 1.1^+ g/m^2/h and the “TEWL 12 h” value is 30.2 ± 2.2^+ g/m^2/h. In the data set with human skin [1], the “TEWL 24 h” value was 27.4 ± 2.2^+ g/m^2/h, the “TEWL values after 24-h treatment (range over the three enhancers)” value is given as 50–65 g/m^2/h, the “time after enhancer removal for TEWL to decline to values similar to baseline” value is at most 8 h and the “TEWL before sample application (baseline)” value turned out to be 27.5 ± 6.3 g/m^2/h. In addition, the IC50 in data set [2] turned out to be 32.7 ± 2.48 µM. In addition, in the data set on human skin [3], the “impedance 1 h” value was 1.4 ± 0.8* kΩ×cm^2, the “impedance 4 h” value was 7.9 ± 0.4*^≠+ kΩ×cm^2, the “impedance 8 h” value is 13.1 ± 0.7*^≠+ kΩ×cm^2 and the “impedance 12 h” value was 15.8 ± 1.0*^≠+ kΩ×cm^2. In addition, in the data set on human skin [3], the “impedance 24 h” value is 18.6 ± 0.9*^≠+ kΩ×cm^2; the “fold decrease of skin impedance” value is 5–21 times; the “recovery of skin impedance” value was “recovered incompletely”; the “impedance before sample application (baseline)” value was 28.9 ± 1.7 kΩ×cm^2.

Regarding `CCCCCCCCCCCCOC(=O)C1CCCN1C(=O)CCC` (centres unmarked) [Pro4], the viability at 1 % in data set [4] was at least 92%. In addition, in the data set with human skin [1], the “TEWL 1 h” value was 49.9 ± 5.2*^≠ g/m^2/h, the “TEWL 4 h” value is 39.4 ± 2.5*^+ g/m^2/h, the “TEWL 8 h” value is reported as 30.5 ± 1.3^+ g/m^2/h and the “TEWL 12 h” value is 26.3 ± 1.8^+ g/m^2/h. Moreover, in the data set on human skin [1], the “TEWL 24 h” value is reported as 25.0 ± 2.8^+ g/m^2/h, the “TEWL values after 24-h treatment (range over the three enhancers)” value was 50–65 g/m^2/h, the “time after enhancer removal for TEWL to decline to values similar to baseline” value was at most 8 h and the “TEWL before sample application (baseline)” value is on record as 27.3 ± 4.1 g/m^2/h. In data set [2], the IC50 amounted to 33.2 ± 2.02 µM. Besides, in the data set with human skin [3], the “impedance 1 h” value is 3.8 ± 0.8* kΩ×cm^2, the “impedance 4 h” value is 11.5 ± 1.7*^+ kΩ×cm^2, the “impedance 8 h” value was 18.3 ± 2.5*^+ kΩ×cm^2 and the “impedance 12 h” value is reported as 21.2 ± 2.5*^+ kΩ×cm^2. In the data set with human skin [3], the “impedance 24 h” value was 23.8 ± 2.9^+ kΩ×cm^2; the “fold decrease of skin impedance” value is 5–21 times; the “recovery of skin impedance” value is “recovered to values similar to baseline within 24 h”; the “impedance before sample application (baseline)” value is given as 28.9 ± 2.6 kΩ×cm^2.
